This is an account of results in ChEMBL document CHEMBL1201862, “PubChem BioAssay data set” (2004).

Molecules are shown by their SMILES.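 Five compound concentrations were applied to cells in 96-well plates for 48 hours; endpoints were derived by simple linear interpolation of the resulting dose-response curve. GI50 = concentration required for 50% inhibition of growth.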 Calls of active or inactive are those of the source. No stated cut-off is given here; in the data, active = GI50 up to about 1.1 µM and inactive = higher. Some results are limits rather than exact numbers.

Among the test systems are SF-268; HCC 2998; CAKI-1; SNB-19; SF-539; IGROV-1; KM12; DU-145; EKVX; U-251; UO-31; MDA-MB-435; M14; SK-MEL-5; UACC-257; 786-0; LOX IMVI; OVCAR-8; RPMI-8226.
Holding throughout (test): NCI anticancer screen, dose series, 48 h

Regarding `COc1ccc2c(cnc3c4cc(OC)c(OC)cc4ccc23)c1`, the GI50 with SF-268, in the test on HCC 2998, in the test on CAKI-1, in the test with SNB-19, with SF-539 and with IGROV-1 was > 100 µM (inactive) throughout. For the same molecule, the GI50 in the test on KM12, in the test with DU-145, with EKVX, with U-251, in the test with UO-31 and in the test with MDA-MB-435 was > 100 µM (inactive) each time. Also, the GI50 in the test on M14, in the test with SK-MEL-5, in the test with UACC-257, in the test with 786-0, in the test on LOX IMVI and with OVCAR-8 was > 100 µM (inactive) in each case.

As for `Oc1cc(CF)nc(S)n1`, the GI50 in the test with SF-268, with HCC 2998, in the test with CAKI-1, in the test with SNB-19, in the test with IGROV-1 and in the test with KM12 was > 100 µM (inactive) throughout. In addition, the GI50 in the test on DU-145, with EKVX, in the test with U-251, with UO-31, with MDA-MB-435 and in the test with M14 was > 100 µM (inactive) in each case. Also, the GI50 with SK-MEL-5, in the test with UACC-257, in the test on 786-0, in the test on LOX IMVI and with OVCAR-8 was > 100 µM (inactive) throughout.

Consider `CCSSCS(C)(=O)=O`, for which the GI50 in the test on SF-268 is 44.5 µM (inactive); with HCC 2998 it was 18.9 µM (inactive); in the test on CAKI-1 it was 34.8 µM (inactive); with SNB-19, 42.7 µM (inactive); in the test on SF-539, 8.81 µM (inactive); with KM12, 61.7 µM (inactive). Further, the GI50 with DU-145 was 19.1 µM (inactive); with EKVX it was 55.1 µM (inactive); with U-251, 36.4 µM (inactive); in the test on UO-31 it was 11 µM (inactive); in the test on MDA-MB-435 it was 22.6 µM (inactive); in the test with M14, 20.4 µM (inactive). The GI50 in the test on SK-MEL-5 is 32.7 µM (inactive); in the test on UACC-257, 21.3 µM (inactive); with 786-0, 5.82 µM (inactive); in the test on LOX IMVI, 34.8 µM (inactive); in the test on OVCAR-8, 21.6 µM (inactive).

As to `COC1OC2COC(C)(C)OC2C2OC(C)(C)OC12` (centres undefined), the GI50 in the test with SF-268 is > 100 µM (inactive); in the test on HCC 2998, > 100 µM (inactive); in the test on CAKI-1 it was 14.6 µM (inactive); with SNB-19, 21.8 µM (inactive); with RPMI-8226 it was 17 µM (inactive); in the test on IGROV-1, 18.7 µM (inactive). For the same molecule, the GI50 with KM12 is > 100 µM (inactive); in the test with DU-145, > 100 µM (inactive); in the test on EKVX it was 25.7 µM (inactive); in the test with U-251, 24.5 µM (inactive); in the test on UO-31, > 100 µM (inactive); in the test with MDA-MB-435 it was > 100 µM (inactive). Moreover, the GI50 was > 100 µM (inactive) with M14; > 100 µM (inactive) in the test on SK-MEL-5; 63.2 µM (inactive) with UACC-257; 18.6 µM (inactive) in the test on 786-0; 55.7 µM (inactive) with OVCAR-8.

As for `Cc1ccc(S(=O)(=O)n2c3ccc(Br)cc3c3nc4ccccc4nc32)cc1`, the GI50 with SF-268 is > 100 µM (inactive); with HCC 2998, > 100 µM (inactive); in the test on CAKI-1 it was > 100 µM (inactive); in the test with SNB-19, > 100 µM (inactive); in the test with RPMI-8226 it was > 100 µM (inactive); in the test with IGROV-1, 0.689 µM (active). The GI50 in the test with KM12, with DU-145, with U-251, in the test with UO-31, in the test with MDA-MB-435 and in the test on M14 was > 100 µM (inactive) each time. Besides, the GI50 in the test with SK-MEL-5, in the test with UACC-257, in the test on 786-0, with LOX IMVI and with OVCAR-8 was > 100 µM (inactive) throughout.

`COc1ccc(/C=C2\CCC(CNc3ccc(S(N)(=O)=O)cc3)C2=O)cc1` (centres undefined): the GI50 with SF-268 is 22.5 µM (inactive); with HCC 2998, 33.3 µM (inactive); in the test with CAKI-1, 3.27 µM (inactive); in the test with SNB-19 it was 32 µM (inactive); with SF-539, 25.7 µM (inactive); in the test with IGROV-1, 20 µM (inactive). The GI50 in the test on KM12 was 11.3 µM (inactive); with DU-145, > 53.8 µM (inactive); with EKVX, 27.6 µM (inactive); in the test with U-251, 19.9 µM (inactive); with UO-31, 5.71 µM (inactive); in the test with MDA-MB-435 it was 18.3 µM (inactive). For the same molecule, the GI50 in the test on M14 was 15.5 µM (inactive); with SK-MEL-5 it was 16.3 µM (inactive); in the test with UACC-257, 20 µM (inactive); in the test on 786-0, 4.9 µM (inactive); in the test on LOX IMVI, 9.89 µM (inactive); in the test with OVCAR-8, 18 µM (inactive).

Take `Clc1ccc(Cl)c(Nc2ccnc(SCc3ccccc3)n2)c1`: the GI50 is > 100 µM (inactive) in the test on SF-268; > 100 µM (inactive) in the test on CAKI-1; > 100 µM (inactive) in the test on SNB-19; > 100 µM (inactive) with SF-539; 99.8 µM (inactive) with RPMI-8226; > 100 µM (inactive) with IGROV-1. For the same molecule, the GI50 in the test on KM12 is > 100 µM (inactive); in the test with DU-145, > 100 µM (inactive); in the test on EKVX, 57.9 µM (inactive); with U-251 it was > 100 µM (inactive); in the test with UO-31, > 100 µM (inactive); with MDA-MB-435, > 100 µM (inactive). The GI50 with M14 was 70 µM (inactive); in the test with SK-MEL-5, > 100 µM (inactive); in the test with UACC-257, > 100 µM (inactive); in the test with 786-0, > 100 µM (inactive); with LOX IMVI it was 46.6 µM (inactive); with OVCAR-8 it was > 100 µM (inactive).

Consider `O=C(O)c1cc(-c2ccc(-c3ccccc3)cc2)nc2cc3ccccc3cc12`, for which the GI50 with SF-268 is 35.2 µM (inactive); in the test with CAKI-1, 42 µM (inactive); in the test on SNB-19 it was 35.6 µM (inactive); in the test on SF-539, 31.2 µM (inactive); in the test on RPMI-8226, 29.6 µM (inactive); in the test with IGROV-1, 26.4 µM (inactive). Besides, the GI50 in the test on KM12 was 34.3 µM (inactive); in the test on DU-145 it was 66.8 µM (inactive); with EKVX, 57.1 µM (inactive); in the test on U-251, 20.7 µM (inactive); with UO-31 it was 61.9 µM (inactive); in the test with MDA-MB-435, 72.9 µM (inactive). In addition, the GI50 in the test with M14 is > 100 µM (inactive); in the test with SK-MEL-5 it was 26.4 µM (inactive); in the test with UACC-257, > 100 µM (inactive); with 786-0 it was 25.9 µM (inactive); in the test with LOX IMVI, 66.7 µM (inactive); with OVCAR-8, 57.1 µM (inactive).

Take `COC(=O)c1cc(C(=O)OC)cc(-c2ccc3c(c2)-c2nc4c(c(-c5ccc(OC)cc5)c2CC3)CCc2ccc(-c3cc(C(=O)OC)cc(C(=O)OC)c3)cc2-4)c1`: the GI50 in the test on SF-268, with HCC 2998, with CAKI-1, in the test with SNB-19, with RPMI-8226 and in the test on KM12 was > 100 µM (inactive) in each case. For the same molecule, the GI50 was > 100 µM (inactive) in the test with DU-145; 16.9 µM (inactive) with EKVX; > 100 µM (inactive) in the test with U-251; > 100 µM (inactive) with UO-31; > 100 µM (inactive) in the test with MDA-MB-435; > 100 µM (inactive) with M14. Also, the GI50 in the test with SK-MEL-5, in the test on UACC-257 and in the test on 786-0 was > 100 µM (inactive) each time.

Regarding `CC(NC(=O)C(Cc1ccc(OC(=O)c2ccccc2)cc1)NC(=O)OC(C)(C)C)C(=O)NCC(=O)NC(Cc1ccccc1)C(=O)NN` (centres undefined), the GI50 is 54.6 µM (inactive) in the test on SF-268; 89.1 µM (inactive) in the test on CAKI-1; 45.6 µM (inactive) with SNB-19; > 100 µM (inactive) with SF-539; 15.8 µM (inactive) in the test on RPMI-8226; 25.4 µM (inactive) in the test on IGROV-1. In addition, the GI50 in the test on KM12 was 80.7 µM (inactive); in the test with DU-145, > 100 µM (inactive); with EKVX it was > 100 µM (inactive); with U-251, 51.5 µM (inactive); with UO-31 it was > 100 µM (inactive); with MDA-MB-435, 39 µM (inactive). Also, the GI50 in the test on M14 was 35.1 µM (inactive); in the test on SK-MEL-5, 34.7 µM (inactive); in the test on 786-0, > 100 µM (inactive); in the test on LOX IMVI it was 18.1 µM (inactive); in the test with OVCAR-8, 65 µM (inactive).

With `CCN1C(=S)n2cccc2C1CC(=O)c1ccc(Cl)cc1` (centres undefined), the GI50 was 63.1 µM (inactive) in the test on SF-268; 73.8 µM (inactive) with HCC 2998; > 100 µM (inactive) in the test with CAKI-1; 75.3 µM (inactive) in the test with SNB-19; 15.7 µM (inactive) in the test with RPMI-8226; > 100 µM (inactive) in the test on IGROV-1. The GI50 in the test on KM12 was > 100 µM (inactive); in the test with DU-145 it was > 100 µM (inactive); with EKVX, 32.3 µM (inactive); with U-251, 36 µM (inactive); in the test with UO-31, 42.9 µM (inactive); with MDA-MB-435, 56.1 µM (inactive). Also, the GI50 with M14 is 89.9 µM (inactive); with UACC-257, 18.4 µM (inactive); in the test with 786-0, > 100 µM (inactive); with LOX IMVI, 58.9 µM (inactive); with OVCAR-8, > 100 µM (inactive).
